Test results: patent US12433882B2, “Treatments for amyotrophic lateral sclerosis using dazucorilant” (Corcept Therapeutics Incorporated, priority 2022, dated 2025)

Key:
GR = molecular target: T1, GR (Homo sapiens, UniProt P04150); assay: GR binding (competitive, reversible); conditions: read-out: affinity for GR
T1 sequence (P04150 1-777): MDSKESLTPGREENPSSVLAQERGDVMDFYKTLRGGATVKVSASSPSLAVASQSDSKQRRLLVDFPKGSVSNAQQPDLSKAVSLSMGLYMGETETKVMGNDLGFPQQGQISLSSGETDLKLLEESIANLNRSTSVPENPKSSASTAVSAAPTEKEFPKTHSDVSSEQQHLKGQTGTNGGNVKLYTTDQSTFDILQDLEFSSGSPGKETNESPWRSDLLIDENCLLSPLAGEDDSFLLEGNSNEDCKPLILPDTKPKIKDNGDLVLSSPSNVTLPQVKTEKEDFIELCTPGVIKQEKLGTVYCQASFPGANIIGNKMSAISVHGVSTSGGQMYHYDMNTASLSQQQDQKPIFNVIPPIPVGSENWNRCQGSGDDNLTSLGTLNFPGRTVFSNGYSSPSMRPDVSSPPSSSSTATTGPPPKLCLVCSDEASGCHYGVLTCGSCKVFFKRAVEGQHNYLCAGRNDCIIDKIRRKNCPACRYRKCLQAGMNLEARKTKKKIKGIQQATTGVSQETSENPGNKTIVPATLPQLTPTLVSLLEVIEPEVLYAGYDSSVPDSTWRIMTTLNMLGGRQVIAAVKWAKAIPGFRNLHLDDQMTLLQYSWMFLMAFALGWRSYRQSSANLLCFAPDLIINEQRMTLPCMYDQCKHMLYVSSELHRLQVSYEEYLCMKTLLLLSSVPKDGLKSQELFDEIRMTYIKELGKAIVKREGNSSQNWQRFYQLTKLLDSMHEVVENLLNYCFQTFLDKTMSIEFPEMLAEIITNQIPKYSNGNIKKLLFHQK
Method: (§1) Dazucorilant is selective for GR over other nuclear hormone receptors, and a range of other receptors, enzymes, and ion channels. For example, dazucorilant has high selectivity for GR relative to the progesterone receptor (PR), androgen receptor, and estrogen receptor, showing no significant binding to these receptors at a concentration of 10 μM (0%, 1.5% and […], respectively).

androgen receptor = molecular target: T2, androgen receptor (Homo sapiens, UniProt P10275); assay: Androgen receptor binding; conditions: 10 μM
T2 sequence (P10275 1-920): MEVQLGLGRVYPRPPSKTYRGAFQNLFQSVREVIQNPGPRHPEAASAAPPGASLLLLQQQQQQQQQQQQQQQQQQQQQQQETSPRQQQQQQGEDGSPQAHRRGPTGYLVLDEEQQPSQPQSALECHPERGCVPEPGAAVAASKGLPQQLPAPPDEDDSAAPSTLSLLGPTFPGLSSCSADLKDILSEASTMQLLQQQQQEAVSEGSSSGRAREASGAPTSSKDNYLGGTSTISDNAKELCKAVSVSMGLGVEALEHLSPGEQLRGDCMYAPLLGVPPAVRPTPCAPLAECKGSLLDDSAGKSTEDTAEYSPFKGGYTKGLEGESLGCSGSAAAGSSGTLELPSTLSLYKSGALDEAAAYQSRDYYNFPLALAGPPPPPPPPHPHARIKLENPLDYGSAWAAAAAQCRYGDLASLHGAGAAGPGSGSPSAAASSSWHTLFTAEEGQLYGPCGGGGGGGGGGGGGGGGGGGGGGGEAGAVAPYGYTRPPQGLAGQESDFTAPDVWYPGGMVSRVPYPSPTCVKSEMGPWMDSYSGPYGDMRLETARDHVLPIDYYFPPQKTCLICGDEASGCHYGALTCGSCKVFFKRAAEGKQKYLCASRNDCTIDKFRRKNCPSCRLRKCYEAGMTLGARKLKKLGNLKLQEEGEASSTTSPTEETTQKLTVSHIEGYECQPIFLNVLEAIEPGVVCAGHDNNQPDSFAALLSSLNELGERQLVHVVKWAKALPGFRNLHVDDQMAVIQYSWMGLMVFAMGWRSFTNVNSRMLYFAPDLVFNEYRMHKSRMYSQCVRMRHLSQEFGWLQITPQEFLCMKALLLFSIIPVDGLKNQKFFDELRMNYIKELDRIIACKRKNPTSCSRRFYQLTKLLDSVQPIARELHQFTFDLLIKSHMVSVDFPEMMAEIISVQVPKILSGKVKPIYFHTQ

estrogen receptor = assay: Estrogen receptor binding; conditions: 10 μM
Method: as §1

[1] = molecular target: T3, mineralocorticoid receptor (MR) (Homo sapiens, UniProt P08235); assay: MR reporter gene assay; format: cell-based
T3 sequence (P08235 1-984): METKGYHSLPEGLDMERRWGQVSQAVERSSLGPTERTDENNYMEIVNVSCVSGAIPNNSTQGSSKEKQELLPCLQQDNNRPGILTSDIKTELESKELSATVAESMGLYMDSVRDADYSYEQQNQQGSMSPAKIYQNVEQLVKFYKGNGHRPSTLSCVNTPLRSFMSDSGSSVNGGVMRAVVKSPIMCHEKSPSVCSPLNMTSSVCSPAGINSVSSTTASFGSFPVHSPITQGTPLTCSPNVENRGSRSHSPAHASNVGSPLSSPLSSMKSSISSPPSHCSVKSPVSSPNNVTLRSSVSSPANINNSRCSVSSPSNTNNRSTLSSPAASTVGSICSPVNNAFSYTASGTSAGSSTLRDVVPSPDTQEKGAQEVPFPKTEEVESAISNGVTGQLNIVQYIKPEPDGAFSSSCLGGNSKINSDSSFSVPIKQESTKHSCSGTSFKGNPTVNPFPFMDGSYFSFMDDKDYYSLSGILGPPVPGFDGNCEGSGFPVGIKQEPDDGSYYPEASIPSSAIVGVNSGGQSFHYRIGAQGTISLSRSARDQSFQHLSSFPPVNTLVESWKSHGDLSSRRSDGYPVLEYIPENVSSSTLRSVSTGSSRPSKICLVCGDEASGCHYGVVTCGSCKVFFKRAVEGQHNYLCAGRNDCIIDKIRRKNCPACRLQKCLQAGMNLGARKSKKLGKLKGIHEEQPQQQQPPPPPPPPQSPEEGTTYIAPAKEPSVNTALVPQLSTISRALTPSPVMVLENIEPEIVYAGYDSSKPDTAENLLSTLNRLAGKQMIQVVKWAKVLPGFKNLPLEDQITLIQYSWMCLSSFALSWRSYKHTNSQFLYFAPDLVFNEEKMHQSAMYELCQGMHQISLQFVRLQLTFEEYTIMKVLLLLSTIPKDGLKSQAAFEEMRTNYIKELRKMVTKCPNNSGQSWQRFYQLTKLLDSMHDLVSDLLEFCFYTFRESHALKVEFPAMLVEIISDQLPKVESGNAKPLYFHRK

[2] = Safety and tolerability in healthy volunteers; format: in vivo
Method: An adaptive dose, double-blind, placebo-controlled study (NCT04249323, EudraCT 2019-004258-27) was conducted in 110 healthy male and female volunteers (18-60 years old; BMI 18-30 kg/m2; weight≤102 kg; “First In Human” (FIH) study).

O=C(c1ccccn1)[C@]12Cc3cnn(-c4ccc(F)cc4)c3C=C1CCN(S(=O)(=O)c1ccc(C(F)(F)F)cc1)C2 [dazucorilant, (R)-(1-(4-fluorophenyl)-6-((4-(trifluoromethyl)phenyl)sulfonyl)-4,4a, 5,6,7,8-hexahydro-1-H-pyrazolo[3,4-g]isoquinolin-4a-yl) (pyridin-2-yl)methanone]
Ki (GR): 0.28 nM | binding to androgen receptor (androgen receptor): 1.5% | binding to estrogen receptor (estrogen receptor): 37.5% | inhibition at 5 µM [1]: 23% | single doses considered safe and well tolerated ([2]; both, human, in vivo): up to 1000 mg | serious or severe treatment-emergent adverse events ([2]; healthy volunteers): No serious or severe treatment-emergent adverse events were reported | most common adverse events ([2]; human, in vivo): gastrointestinal, nervous system, musculoskeletal, and connective tissue disorders | safety concerns ([2]; human, in vivo): no significant safety concerns were identified | severity of adverse events ([2]; human, in vivo): mild to moderate | multiple doses considered safe ([2]; multiple doses QD): up to 300 mg QD | multiple doses safe and generally well tolerated ([2]; multiple doses QD): up to 200 mg QD
